{"source": "patent US20130190310A1", "about": "“MIG6 AND THERAPEUTIC EFFICACY” (THE JOHNS HOPKINS UNIVERSITY, priority 2010, published 2013)", "key": {"Mig6 [1]": {"system": "Mig6", "test": "Immunoblot analysis of Mig6 expression in SCC-R cells", "type": "cell-based, human", "conditions": "for expression of Mig6: AKI or U0126 10 or 20 μM, LY294002 10 or 25 μM, rapamycin 1 or 2 μM", "description": "Antibodies against EGFR, phospho-tyrosine (P-Tyr-100), phospho-EGFR (Tyr1068), phospho-HER2/ErbB2 (Tyr1248), AKT, phospho-AKT (Ser473), p44/42 MAPK, (Erk1/2), phospho-p44/42 MAPK (Erk1/2) (Thr202/Tyr204), and PTEN were obtained from Cell Signaling Technology, Inc. (Beverly, Mass.). Monoclonal anti-P-Actin antibody was obtained from Sigma (St. Louis, Mo.). Polyclonal anti-Mig6 antibody was a generous gift from Dr. Ferby (15). […] Equal amounts of protein were mixed with Laemmli sample buffer, run on 4-12% NuPAGE gels and transferred to nitrocellulose membrane (Bio-Rad Laboratories, Hercules, Calif.). The membrane was probed with primary antibody followed by HRP-conjugated appropriate secondary antibodies (Santa Cruz Biotech, Santa Cruz, Calif.), and detected by enhanced chemiluminescence (ECL, GE Health Care, Piscataway, N.J.)."}, "EGFR [2]": {"system": "EGFR", "test": "Immunoblot/densitometric analysis of phospho-EGFR/total EGFR in SCC-R cells", "type": "cell-based, human", "conditions": "inhibitor 24 hrs (25 μM LY294002, 20 μM AKI, 2 μM rapamycin, 20 μM U0126), then 10 ng/ml EGF 30 min", "method": "(§1) Antibodies against EGFR, phospho-tyrosine (P-Tyr-100), phospho-EGFR (Tyr1068), phospho-HER2/ErbB2 (Tyr1248), AKT, phospho-AKT (Ser473), p44/42 MAPK, (Erk1/2), phospho-p44/42 MAPK (Erk1/2) (Thr202/Tyr204), and PTEN were obtained from Cell Signaling Technology, Inc. (Beverly, Mass.). Monoclonal anti-P-Actin antibody was obtained from Sigma (St. Louis, Mo.). Polyclonal anti-Mig6 antibody was a generous gift from Dr. Ferby (15). When appropriate, cells were cultured in serum free medium overnight, pretreated with the indicated inhibitors for 3 hrs or […], and the treated with 10 ng/ml EGF for 10 or 30 min. Equal amounts of protein were mixed with Laemmli sample buffer, run on 4-12% NuPAGE gels and transferred to nitrocellulose membrane (Bio-Rad Laboratories, Hercules, Calif.). The membrane was probed with primary antibody followed by HRP-conjugated appropriate secondary antibodies (Santa Cruz Biotech, Santa Cruz, Calif.), and detected by enhanced chemiluminescence (ECL, GE Health Care, Piscataway, N.J.)."}, "Mig6 [3]": {"system": "Mig6", "test": "Immunoblot analysis of Mig6 expression in 358 cells", "type": "cell-based, human", "conditions": "24 hrs", "method": "as §1"}, "EGFR [4]": {"system": "EGFR", "test": "Immunoblot of EGF-induced EGFR phosphorylation in bladder and lung cancer cell lines", "type": "cell-based, human", "conditions": "all bladder and lung cancer cell lines tested; 0.1 μM erlotinib 3 hrs before 10 ng/ml EGF", "method": "as §1, with “Equal amounts of protein were mixed with Laemmli sample buffer, run on 4-12% NuPAGE gels and transferred to nitrocellulose membrane (Bio-Rad Laboratories, Hercules, Calif.).” left out"}, "PANC215": {"system": "PANC215", "test": "Erlotinib treatment of directly xenografted pancreatic tumors", "type": "in vivo, nude mice", "procedure": "The xenografts were generated and erlotinib treatment was performed as published previously (17, 18). Relative tumor growth inhibition (TGI) was calculated as the relative tumor growth of treated mice divided by relative tumor growth of control mice (T/C)."}, "SCC-S and SCC-R cells": {"system": "SCC-S and SCC-R cells", "test": "Cell viability and drug sensitivity assay (Calcein AM), erlotinib-sensitive vs -resistant isogenic cells", "type": "cell-based, human", "conditions": "erlotinib 72 hrs, cell viability", "method": "Drug resistant cell lines were generated via a process of slowly escalating exposure to erlotinib, as reported previously (16). SCC-S is used to designate the parental UM-SCCI cells exposed to DMSO, and SCC-R refers to the erlotinib resistant clone.\n(§2) Cells were plated at a density of 3000/well in 96-well plates. The following day, cells were treated with 0, 0.01, 0.033, 0.1, 0.33, 1, or 3.3 μM erlotinib for an additional 72 hrs. Cell viability was subsequently assayed using Calcein AM (Invitrogen), Fluorescence signals generated as a result of Calcein AM cleavage by viable cells were read by a Molecular Devices plate reader (Sunnyvale, Calif.) using an excitation frequency of 480 nm, and an emission frequency of 535 nm."}, "[5]": {"conditions": "150 mg per day; cited from earlier work"}, "serum proteins": {"system": "serum proteins", "conditions": "cited from earlier work"}, "H358 cells": {"system": "H358 cells", "test": "Cell viability of parental and TGF β-induced H358 cells", "type": "cell-based, human", "conditions": "TGF-β-induced mesenchymal-like cells vs parental", "method": "as §2"}, "BML-5": {"system": "BML-5", "test": "Erlotinib treatment of directly xenografted lung tumors", "type": "in vivo, nude mice", "conditions": "BML-5 compared with BML-1, BML-7, BML-11", "procedure": "(§3) The xenografts were generated and erlotinib treatment was performed as published previously (17, 18). Relative tumor growth inhibition (TGI) was calculated as the relative tumor growth of treated mice divided by relative tumor growth of control mice (T/C). The animals were maintained in accordance to guidelines of the American Association of Laboratory Animal Care and the research protocol was approved by the Johns Hopkins University Animal Use and Care Committee."}, "PANC294": {"system": "PANC294", "test": "Erlotinib treatment of directly xenografted pancreatic tumors", "type": "in vivo, nude mice", "procedure": "as §3"}, "PANC410": {"system": "PANC410", "test": "Erlotinib treatment of directly xenografted pancreatic tumors", "type": "in vivo, nude mice", "procedure": "as §3"}, "PANC420": {"system": "PANC420", "test": "Erlotinib treatment of directly xenografted pancreatic tumors", "type": "in vivo, nude mice", "procedure": "as §3"}, "Mig6 [6]": {"system": "Mig6", "test": "Immunoblot analysis of Mig6 expression in 358/TGFβ1-day 21 and 358/TGFβ3-day 21 cells", "type": "cell-based, human", "conditions": "24 hrs", "method": "as §1"}, "PANC140": {"system": "PANC140", "test": "Erlotinib treatment of directly xenografted pancreatic tumors", "type": "in vivo, nude mice", "procedure": "as §3"}, "tumors in Errfil−/− mice": {"system": "tumors in Errfil−/− mice", "conditions": "cited from earlier work"}, "NSCLC": {"system": "NSCLC", "conditions": "patients randomized to gefinitib or placebo; cited from earlier work"}, "[7]": {"system": "tumors in control Errfil+/+ mice", "conditions": "cited from earlier work"}}, "note": "Entries after “also recorded” stand apart in the source; their conditions may differ.", "data": [{"molecule": "O=c1[nH]c2ccccc2n1C1CCN(Cc2ccc(-c3nc4cc5[nH]cnc5cc4nc3-c3ccccc3)cc2)CC1", "note": "[AKI]", "values": [{"measurement": "expression of Mig6", "setting": "Mig6 [1]; 24 hrs", "value": "decreased"}, {"measurement": "ratio of phospho-EGFR to EGFR", "setting": "EGFR [2]", "value": "increased"}]}, {"molecule": "N#CC(=C(/N)Sc1ccccc1N)/C(C#N)=C(\\N)Sc1ccccc1N", "note": "[U0126]", "values": [{"measurement": "expression of Mig6", "setting": "Mig6 [3]", "value": "reduced"}, {"measurement": "expression of Mig6", "setting": "Mig6 [1]; 24 hrs", "value": "decreased"}, {"measurement": "ratio of phospho-EGFR to EGFR", "setting": "EGFR [2]", "value": "increased"}]}, {"molecule": "C#Cc1cccc(Nc2ncnc3cc(OCCOC)c(OCCOC)cc23)c1", "note": "[erlotinib]", "values": [{"measurement": "ligand-induced EGFR phosphorylation", "setting": "EGFR [4]", "value": "effectively block"}, {"measurement": "erlotinib responsiveness of xenografted pancreatic tumor", "setting": "PANC215", "value": "erlotinib-resistant"}, {"measurement": "IC50 of SCC-R cells relative to SCC-S cells", "setting": "SCC-S and SCC-R cells", "value": "> 10", "unit": "times"}, {"measurement": "steady-state serum concentration, median", "setting": "[5]", "value": 2.9, "unit": "µM"}, {"measurement": "bound to serum proteins", "setting": "serum proteins", "value": 90, "unit": "%"}, {"measurement": "resistance to erlotinib, cell viability", "setting": "H358 cells", "value": "acquired increasing resistance"}, {"measurement": "expression of Mig6", "setting": "Mig6 [3]", "value": "reduced"}, {"measurement": "basal Mig6 expression", "setting": "Mig6 [1]; 0.2 or 1 μM erlotinib, 24 hrs", "value": "only a slight decrease"}, {"measurement": "EGF-induced Mig6 upregulation", "setting": "Mig6 [1]; erlotinib pretreatment 30 min then 10 ng/ml EGF 24 hrs", "value": "completely abolish"}, {"measurement": "response of lung xenograft to erlotinib (tumor growth)", "setting": "BML-5", "value": "sensitive; also recorded: better response"}, {"measurement": "erlotinib responsiveness of xenografted pancreatic tumor", "setting": "PANC294", "value": "erlotinib-resistant"}, {"measurement": "erlotinib responsiveness of xenografted pancreatic tumor", "setting": "PANC410", "value": "erlotinib-sensitive"}, {"measurement": "erlotinib responsiveness of xenografted pancreatic tumor", "setting": "PANC420", "value": "erlotinib-resistant"}, {"measurement": "expression of Mig6", "setting": "Mig6 [6]", "value": "failed to suppress"}, {"measurement": "erlotinib responsiveness of xenografted pancreatic tumor", "setting": "PANC140", "value": "erlotinib-resistant"}]}, {"molecule": "COc1cc2ncnc(Nc3ccc(F)c(Cl)c3)c2cc1OCCCN1CCOCC1", "note": "[gefitinib]", "values": [{"measurement": "sensitivity of carcinogen-induced tumors to gefitinib", "setting": "tumors in Errfil−/− mice; Errfil−/− mice", "value": "unusually sensitive"}, {"measurement": "tumor regression", "setting": "tumors in Errfil−/− mice; in 1 week following initiation of gefitinib treatment", "value": "more than 50%"}, {"measurement": "overall difference of PFS vs placebo", "setting": "NSCLC", "value": 7, "unit": "days"}, {"measurement": "tumor response to gefitinib", "setting": "[7]", "value": "did not respond"}]}]}
